Measured values published in US20240382610A1 (priority 2021, published 2024).

Legend:
[1] = system: DLD-1 nectin-4 tumor cells; type: cell-based, human
CD19+ B cells = experiment: Free CpG activity on CD40 expression by CD19+ B cells in human PBMCs; type: cell-based; conditions: PBMC from three donors (D559, D804, D643)
Protocol: Trima residuals were received from Vitalant and diluted 1:2 with Phosphate Buffered Saline (PBS, Gibco). Diluted blood was split into two tubes and underplayed with 15 mL Ficoll-Paque (GE Healthcare). Tubes were centrifuged for 30 minutes at 400×g. PBMCs were collected from the interface, resuspended and washed in FACS buffer (PBS with 0.5% Bovine Serum Albumin (Gibco)). After one wash, PBMCs were resuspended in Complete RPMI (RPMI+10% FBS).
PBMCs were immediately plated onto a 96-well format (500K/well) in Complete RPMI. Five-fold serial dilutions were added to the cells from 1 uM to […] of CpG oligonucleotides at 37° C. under 5% CO2 for 48 hours. Cells were pelleted by centrifugation for five minutes at 400×g and stained at 4° C. in Fixable Viability Dye eFluor 780 (Thermo Fisher) diluted 1:4000 in PBS. Cells were centrifuged and stained at 4° C. in FACS buffer for 30 minutes containing FcR Blocking Reagent (Miltenyi Biotec), anti-CD19, anti-CD20, anti-CD40, anti-HLADR and anti-CD80. Cells were centrifuged and washed twice in FACS buffer and fixed in 0.5% paraformaldehyde. Cells were analyzed on Attune NxT Flow Cytometer (Thermo Fisher), with subsequent data analysis by Flowjo 10.7 (Treestar). Dead cells were excluded by gating on the eFluor 780-negative population. B cells were identified as CD19^+CD20^+cells and level of activation marker was assessed by median fluorescent intensity. […]

[2] = system: Ramos-Blue Cells NF-kB/AP-1 Reporter B lymphocytes; experiment: Ramos NFkb Reporter Assay; type: cell-based; conditions: 24 h stimulation, OD655

Which “phagocytosis of DLD-1 nectin-4 tumor cells by macrophages” value [1] does the source give for “CpG 7-7: "CpG 7-7 (7-7b; SEQ ID NO:35)", free CpG oligonucleotide of series 7 (DNA NCGTCGTGTCGTTT; modified_base 1 OTHER; 5-Bromo-2'-deoxyuridine; modified_base 1..4 OTHER; phosphorothioate linkages; modified_base 4..5 OTHER; phosphotriester linker-PEG24-NH2; modified_base 5..9 OTHER; modified_base 9..10 OTHER; phosphorodithioate linkage; modified_base 10..14 OTHER; modified_base 13..14 OTHER; 2'-O-methyl-thymidine; misc_feature 14 3' spacer)” here?
Its value is “did not appear to result in detectable phagocytosis”.

What about the “activity as observed by CD40 expression” value (CD19+ B cells) of the same substance?
Its value is “higher activities”.

And the “activity in NFkb reporter assay” value [2]?
The value was “significantly higher activity”.
